According to US9914722B2, “Compounds for treating spinal muscular atrophy” (PTC Therapeutics Inc., priority 2012, dated 2018):

Key:
[1] = tested on: SMN2 full length and Δ7 mRNA; test: Endogenous SMN2 mRNA end-point semi-quantitative RT-PCR splicing assay in cultured cells; assay type: cell-based, human; settings: 24 hr, FIG. 5; for SMN2 FL mRNA (gel band) / SMN2 Δ7 mRNA (gel band): GM03813 Type 1 SMA patient fibroblasts, increasing concentrations; for SMN2 alternative splicing: Type 1 SMA patient fibroblasts, rising concentrations
Method: Endogenous SMN2 mRNA End-Point Semi-Quantitative RT-PCR Splicing Assay in Cultured Cells
The endpoint reverse transcription-PCR splicing assay is used to visualize and quantify the levels of the SMN2 full length and Δ7 mRNA in primary cells and cell lines containing the SMN2 gene treated with a test compound.
Protocol. GM03813 SMA patient cells (5,000 cells/well) are seeded in 200 μL of cell culture medium (DMEM plus 10% FBS) in 96-well flat-bottom plates and the plate is immediately swirled to ensure proper dispersal of cells, forming an even monolayer of cells. Cells are allowed to attach for at least 4-6 hrs. Test compounds are serially diluted 3.16-fold in 100% DMSO to generate a 7-point concentration curve. A solution of test compound (1 μL, 200× in DMSO) is added to each test well and 1 μL DMSO is added to each control well. The plate is incu bated for 24 hrs in a cell culture incubator (37° C., 5% CO2, 100% relative humidity). The cells are then lysed in Cells-To-Ct lysis buffer and the lysate is stored at −80° C.
SMN FL and Δ7 mRNA are identified using the following primers in Table 6. These primers hybridize to a nucleotide sequence in exon 6 (SMN Forward C, SEQ ID NO. 11) (nucleotide 43 to nucleotide 63) and exon 8 (SMN Reverse C, SEQ ID NO. 12) (nucleotide 51 to nucleotide 73) common to human SMN1 and SMN2 mRNA. Since the SMA patient cells used in Example 4 contain only the SMN2 gene, RT-PCR can visualize and quantify only SMN2 full-length and SMN2 Δ7 mRNA.
To synthesize cDNA, 5 μL of lysate, 4 μL of 5× iScript reaction mix, 1 μL of reverse transcriptase, and 10 μL of water are combined and incubated 5 min at 25° C. followed by 30 min at 42° C., followed by 5 min at 85° C. The cDNA solution is stored at −20° C.
To perform endpoint PCR, 5 μL of cDNA, 0.2 μL of 100 μM forward primer, 0.2 μL of 100 μM reverse primer, and 22.5 μL of polymerase super mix are combined in a 96 well semiskirted PCR plate. PCR is carried out at the following temperatures for the indicated time: Step 1: 94° C. (2 min), Step 2: 94° C. (30 sec), Step 3: 55° C. (30 sec), Step 4: 68° C. (1 min), then repeat Steps 2 to 4 for a total of 33 cycles, then hold at 4° C.
10 μL of each PCR sample is electrophoretically separated on a 2% agarose E-gel for 14 minutes stained with double-stranded DNA (dsDNA) staining reagents (e.g., ethidium bromide) and visualized using a gel imager.

[2] = tested on: Smn protein; test: Smn protein assay (Smn HTRF) in cultured cells; assay type: cell-based, human; settings: for maximal fold induction / EC (1.5-fold): Homo sapiens, Fibroblast, GM03813 SMA Type 1 patient fibroblasts, 48 hours, HTRF; for maximal fold induction: 7-point concentration data, relative to vehicle, read-out: maximum fold (Fold) increase of Smn protein; for EC (1.5-fold): concentration producing 1.5 times Smn protein vs DMSO vehicle, read-out: EC1.5x for Smn protein expression; for Smn protein expression: SMA Type 1 patient fibroblast cells, 48 hour, SMN HTRF assay, FIG. 6
How it was run: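 SMA patient fibroblasts (5,000/well) were exposed to a 7-point, 3.16-fold compound dilution series for 48 hours at 37° C, in triplicate. Lysates were read by HTRF with anti-SMN d2/kryptate at 665/620 nm. Blank-corrected signal was expressed as fold over DMSO vehicle, giving the EC1.5x and the maximum fold increase.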

Compound	SMN2 FL mRNA (gel band) [1]	SMN2 Δ7 mRNA (gel band) [1]	SMN2 alternative splicing [1]	maximal fold induction [2]	EC (1.5-fold) [2]	Smn protein expression [2]
C[C@@H]1CN(c2ccc3oc(-c4cn5ccccc5n4)cc(=O)c3c2)C[C@H](C)N1 [Cpd 17, 6-[(3R,5S)-3,5-dimethylpiperazin-1-yl]-2-(imidazo[1,2-a]pyridin-2-yl)-4H-chromen-4-one]	progressively more SMN2 FL mRNA	less SMN2 Δ7 mRNA	correction of SMN2 alternative splicing	> 1.65	1 to 3 µM	dose dependent increase in Smn protein expression
COc1ccc(-c2cc(=O)c3cc(N4CCN[C@@H](C)C4)ccc3o2)cc1F [Cpd 38, 2-(3-fluoro-4-methoxyphenyl)-6-[(3S)-3-methylpiperazin-1-yl]-4H-chromen-4-one]	progressively more SMN2 FL mRNA	less SMN2 Δ7 mRNA	correction of SMN2 alternative splicing	1.5 to 1.65	0.3 to 1 µM	dose dependent increase in Smn protein expression
